“And” between values parts separate entries of the source, which are not always exact repeats. Identical values can stand only once.

The subject of experiment [1] is JM1. Kind of experiment: Tested for antiviral uM; Activity expressed as % inhibition of syncytium. The class given is functional, Homo sapiens.
Experiment [2] has as its system JM1. Kind of experiment: Tested for the cytotoxicity against JM cells at 100 uM in an MTT assay. It counts as functional, Homo sapiens. On the technique in general: Tetrazolium dyes change colour on reduction, which living cells bring about.
The subject of experiment [3] is JM1. Kind of experiment: (§1) Tested for antiviral activity of compound against HIV (Strain GB 8) in JM cells. The class given is functional, cell-based. Particulars: Homo sapiens.
Experiment [4] concerns JM1. Described as §1. It counts as functional, Homo sapiens.
Experiment [5] concerns JM1. The experiment is described as §1. It counts as functional, cell-based. Particulars: Homo sapiens. The source holds these as a separate data set.

The Inhibition is the relative decrease from the control value, in per cent. A lower Inhibition goes with a weak effect. `COC(=O)NN1C(=O)[C@H](C)[C@H]1[C@@H]1NC[C@@H](O)[C@H]1O.Cl`: the Inhibition in the experiment with JM1 [1] was 20% and 27%.

The IC50 is the midpoint of a concentration-inhibition curve. By IC90 is commonly meant the point of the concentration-response curve where the effect stands at 90%. High values mean a need for much substance, low ones an effect from little substance. With `O[C@H]1[C@H](O)[C@@H](O)CN2CC[C@H](O)[C@H]12` [CASTANOSPERMINE], in the experiment on JM1 [2], the Cytotoxicity was 0% and 4%. The IC50 was determined as 8.8 µM with JM1 [3] and 7.3 µM with JM1 [5]. Also, the IC90 in the experiment with JM1 [4] was determined as 24.5 µM; in the experiment on JM1 [4] (Homo sapiens, JM1), 28.2 µM.

Source of the values: ChEMBL document CHEMBL1126998, “-lactam derivatives from 1-H-1,2-diazepines” (Bioorg Med Chem Lett, 1993).
